This assay deals with Chlorella sp. ATCC 7516. The experiment in a line: Algal efficacy testing of dry paint films (modified ASTM 5589, 6-well plates). The class given is cell-based. The following applies: 504 h. As to the method:
These paints were then diluted with a biocide free acrylic/silicone based paint and mixed to prepare targeted concentrations of biocide combinations for the testing. The total biocides concentrations obtained were 125, 250, 500, 1000, 2000 and 5000 ppm. After biocides addition or dilution, the paints were mixed 90 seconds with the horse power shaker (AXEL 75M3372/Agitateur SO-10MI) until uniformity was achieved. […] After one day, the paints were applied to Schleicher & Schuell filter paper at 280 μm wet film thickness and dried for 3 days at room temperature avoiding direct exposure to sunlight. Square discs (1.8 cm×1.8 cm) were cut out from each panel and were used as the substrate for algal efficacy tests. This sample size allowed for an agar border when the sample disc was placed into the well of the test plate.
Algal efficacy was tested according to modified ASTM 5589 which is a standard accelerated test method for determining resistance of various coatings (including paints) to algal defacement. To accommodate for high-throughput screening, this method was scaled down from petri plates to 6-well plates. […]
At the end of the incubation period the samples were scored for percent inhibition regarding color intensity compared to the blank sample
The SI is calculated based on F. C. […]

The inhibition is the relative decrease from the control value, in per cent.

With `N#Cc1c(Cl)c(Cl)c(Cl)c(C#N)c1Cl` [Chlorothalonil, 2,4,5,6-tetrachloroisophthalonitrile], where the note is “Total conc 10,000 ppm in paint, three weeks, color intensity vs blank, pass level 75%”, the inhibition at 10000 ppm worked out at 15%. With `O=c1[nH]c2c(c(=O)n1C1CCCCC1)CCC2` [Lenacil, 3-Cyclohexyl-6,7-dihydro-1H-cyclopentapyrimidine-2,4-(3H,5H)-dione], the inhibition at 1000 ppm stood at 90%.

Values taken from patent publication US20190297885A1 (Dow Global Technologies LLC, priority 2016, published 2019).
